Like-named read-outs stand apart in the source and are kept apart here.
Assays:
[1] = Stability in the formulation vehicle for in vivo studies; assay type: physicochemical; settings: 10% DMSO: 10% Cremophor: 80%:0.9% Saline; even at 37° C. for at least 2 hr
Description: Drug was dissolved in vehicle (10% DMSO: 10% Cremophor: 80%:0.9% Saline) and then incubated at four different temperatures (37° C., RT, 4° C., and −20° C.) for up to 2 hr. Prostratin is stable in this formulation even at 37° C. for at least 2 hr.

[2] = In vitro metabolism in rat liver microsomes; assay type: in vitro ADME
From the text: In vitro metabolism of prostratin was investigated using mouse, rat, monkey, and human liver microsomes (Gentest). […] Attempts to identify the metabolite by LC/MS/MS were unsuccessful due to the low amounts present in the reaction mixtures (FIG. 1).

[3] = Pharmacokinetic studies in mice; assay type: in vivo, CD2F1 mice
Description: Studies were conducted in CD2F1 mice using both the i.p. route (1.9 mg/kg) and the i.v. route (0.76 mg/kg). The vehicle was 10% DMSO: 10% Cremophor: 80%:0.9% saline for both routes. Doses used were preciously determined as maximally tolerated. Drug was detected out to 4 hr but was only quantifiable out to 3 hr post drug administration (see FIG. 5A, B). Data are presented as mean±SD where n=5. Data that were detected beyond 3 hr post drug administration are shown as “BLQ” (below the limit of quantification of the validated assay). Data were fit using 1 and 2 compartment pharmacokinetic models using ADAPT II computer program. In general the 2-compartment model provided a better fit for the data than did a 1-compartment model (Table 2). […] For the two-compartment model the situation was reversed (i.e. more variance for the model predicted PK parameters with lower residual values for the individual plasma concentration data).

[4] = Stability of prostratin in monkey plasma; assay type: in vitro ADME; settings: 1 and 10 mg/ml, RT and 37° C.
Description: Prostratin is stable in plasma and buffer as well as in the stability formulation (see below) developed for in vivo studies in mice. Stability tests for prostratin in mouse and monkey plasma were done using two concentration (1 and 10 mg/ml) and two temperatures (Room Temperature (RT) and 37° C.). The only loss of drug occurred in mouse plasma after 24 hr incubation at 37° C. This represented only 14% decrease in parent drug peak area over this time frame. Prostratin is stable in PBS (phosphate buffer saline) at pH 2 and pH 7.

[5] = Dose-range finding study in monkeys and determination of MTD; assay type: in vivo, rhesus macaque monkeys; settings: rhesus monkey, in vivo
Description: (§1) After a suitable wash-out period (15-20 days), monkeys that previously received 0.1 mg/kg, were administered a dose of 0.6 mg/kg, and those that previously received 0.4 mg/kg, were administered a second dose of 0.4 mg/kg. Blood was collected as before for clinical pathology and cytokine assay analysis. There was no mortality in this study. However both animals receiving 0.6 mg/kg prostratin required more time (2-4 times as much) to recover from Ketamine (used as a chemical restraint while weighing and dosing) after the second dosing compared with the initial doses. On day 3, all monkeys had elevated (2-3 fold) fibrinogen levels and there was evidence of dose-dependent hepatotoxicity.

[6] = system: rhesus macaque monkeys; experiment: as above; assay type: in vivo
Description: as §1

[7] = system: cultured human peripheral blood lymphocytes; experiment: Chromosomal aberrations in cultured human peripheral blood lymphocytes; assay type: cell-based
Description: The objective of this in vitro assay was to evaluate the ability of prostratin to cause structural chromosomal aberrations in cultured human lymphocytes with and without an exogenous metabolic activation system.
Dimethylsulfoxide (DMSO) was the vehicle of choice for this study. […] The stock solution and its dilutions were dosed using a dosing volume of 1% (10 μL/ml) and the vehicle control cultures were treated with 10.0 μL/ml of DMSO.
In the initial chromosomal aberrations assay, the treatment period was for 3 hours with and without metabolic activation, and cultures were harvested ˜22 hours from the initiation of treatment. Replicate cultures of human whole blood lymphocytes were incubated with test article at 23.7, 33.9, 48.4, 69.2, 98.9, 141, 202, 288, 412, 588, 840, 1200, 1720, 2450, and 3500 μg/ml with and without metabolic activation. Cultures treated with concentrations of 412, 588, 840, and 1200 μg/ml without metabolic activation and 588, 840, 1200, and 1720 μg/ml with metabolic activation were analyzed for chromosomal aberrations.
In the confirmatory chromosomal aberrations assay, the treatment period was ˜22 hours without metabolic activation and 3 hours with metabolic activation, and cultures were harvested ˜22 hours from the initiation of treatment. Replicate cultures of human whole blood lymphocytes were incubated with test article at 15.6, 31.3, 62.5, 125, 188, 250, 375, 500, 750, 1000, 1400, and 1700 μg/ml without metabolic activation and 250, 500, 1000, 1400, 1700, 2000, and 2500 μg/ml with metabolic activation. Cultures treated with concentrations of 125, 250, 500, and 1400 μg/ml without metabolic activation and 1400, 1700, 2000, and 2500 μg/ml with metabolic activation were analyzed for chromosomal aberrations.
For all treatment conditions, the vehicle and negative control cultures were within the expected range and the historical control data and the positive control cultures induced significant increases in chromosomal aberrations.

[8] = mice, IP (1.9 mg/kg), 2-compartment model
[9] = mice, IV (0.76 mg/kg), 2-compartment model
[10] = mice, i.p. 1.9 mg/kg and i.v. 0.76 mg/kg

## CC(=O)O[C@@]12C[C@@H](C)[C@@]3(O)[C@@H](C=C(CO)C[C@]4(O)C(=O)C(C)=C[C@@H]34)[C@@H]1C2(C)C [prostratin, 12-deoxyphorbol 13-acetate]
[1]
  stability in formulation: stable
[2]
  metabolism (time-dependent loss of parent compound): substantially less
[3]; CD2F1, mouse, plasma, intraperitoneal and intravenous, mice, both the i.p and i.v. routes
  clearance: 200 to 250 mL/min/kg
[3]; CD2F1, mouse, plasma, ip, 1.9 mg/kg, mice, IP (1.9 mg/kg), 2-compartment model, read-out: T1/2 a (converted)
  half-life: 20.4 min
[3]; CD2F1, mouse, plasma, ip, 1.9 mg/kg, mice, IP (1.9 mg/kg), 2-compartment model, read-out: T1/2 b (converted)
  half-life: 12600 min
[3]; CD2F1, mouse, plasma, ip, 1.9 mg/kg, mice, IP (1.9 mg/kg), read-out: T1/2 [1-compartment model] (converted)
  half-life: 20.4 min
[3]; CD2F1, mouse, plasma, iv, 0.76 mg/kg, mice, IV (0.76 mg/kg), 2-compartment model, read-out: T1/2 a (converted)
  half-life: 27.6 min
[3]; CD2F1, mouse, plasma, iv, 0.76 mg/kg, mice, IV (0.76 mg/kg), 2-compartment model, read-out: T1/2 b (converted)
  half-life: 1170 min
[3]; CD2F1, mouse, plasma, iv, 0.76 mg/kg, mice, IV (0.76 mg/kg), read-out: T1/2 [1-compartment model] (converted)
  half-life: 31.8 min
[3]; [8]
  CLt: 219.2 mL/min/kg
  Vc: 11.03 L/kg
[3]; [9]
  CLt: 252.7 mL/min/kg
  Vc: 17.32 L/kg
[3]; [10]
  time out to which drug was detected in plasma: 4 h
  time out to which drug was quantifiable in plasma: 3 h
[3]; mice, i.p. route
  maximally tolerated dose: 1.9 mg/kg
[3]; mice, i.v. route
  maximally tolerated dose: 0.76 mg/kg
[3]; pooled samples from five mice dosed i.p. (1.9 mg/kg), up to 24 hours
  cumulative urinary excretion: < 5 % of the administered dose
[4]
  stability in plasma: stable
[5]; both sexes, iv, monkeys, single bolus i.v. dose, read-out: MTD
  MTD at 15 days: 0.4 to 0.6 mg/kg
[5]; intravenous, as restated in Example 13, read-out: MTD later found in monkeys at NIH
  MTD at 15 days: 0.2 to 0.4 mg/kg
[6]; 0.6 mg/kg
  time to recover from Ketamine compared with the initial doses: 2-4 times
[6]; 0.6 mg/kg dose group, day 3
  increase in level of ALT and AST over baseline: 25-50 fold
[6]; 0.1 and 0.4 mg/kg i.v. bolus, day 1
  time after which plasma drug level is undetectable: 4 h
[6]; all clinical pathology measurements normal by day 15
  reversibility of toxicities: reversible
[6]; day 3, all monkeys
  elevation of fibrinogen levels: 2-3 fold
[6]; day 3, dose-dependent
  CK and LD levels: increases
[6]; female monkeys, 0.4 and 0.6 mg/kg
  level of IL-6: increase
[6]; i.v. bolus 0.1, 0.4 and 0.6 mg/kg
  mortality: no mortality
[6]; single intravenous bolus 0.1 or 0.4 mg/kg
  toxicity at the initial doses: absence of toxicity
[7]; confirmatory assay, ~22 hours without and 3 hours with metabolic activation, 125-1400 μg/ml without, 1400-2500 μg/ml with
  cells with chromosomal aberrations, polyploidy, or endoreduplication: No significant increase
[7]; initial assay, 3 hours with and without metabolic activation, 412-1200 μg/ml without, 588-1720 μg/ml with
  cells with chromosomal aberrations, polyploidy, or endoreduplication: No significant increase
[7]; without and with an exogenous metabolic activation system
  induction of chromosomal aberrations, overall: negative
